The text below walks through data of patent US11566017B2, “Dihydroquinazolinone compound or pharmacologically acceptable salt, and cell growth inhibitor” (RIKEN, priority 2017, dated 2023).

Bounds are passed on as bounds.

The target of one assay is T1, tankyrase 1 (TNKS1) (Homo sapiens, UniProt O95271).
T1 construct: tankyrase 1 (1,024-1,327aa, SAM+PARP); made in house; host or cells: cell-free protein expression system
Description: Tankyrase inhibitory activity test (ELISA, auto-poly(ADP-ribosyl)ation), tankyrase 1. In kind it is biochemical. As to conditions: Flag tagged tankyrase 1 (1,024-1,327aa, SAM+PARP); read-out: TNKS1 (inhibitory activity against tankyrase 1, IC50). The procedure: (§1) The enzymatic activity of tankyrase 1 and the enzymatic activity of tankyrase 2 were measured by the ELISA method based on assessment of auto-poly(ADP-ribosyl)ation to evaluate the tankyrase inhibitory activity of the compound prepared in each of Examples (test compound) (inhibitory activity against tankyrase 1 (TNKS1) and inhibitory activity against tankyrase 2 (TNKS2)). First, Flag tagged tankyrase 1 (1,024-1,327aa, SAM+PARP) and tankyrase 2 (613-1,116aa, ANK5+SAM+PARP) were synthesized with a cell-free protein expression system, and diluted with a Tris buffer solution (50 mM Tris-HCl (pH 8.0), 150 mM NaCl, 10% glycerol). 50 μL of the diluted tankyrase 1 or tankyrase 2 was added to a plate with an anti-FLAG M2 monoclonal antibody immobilized thereon (Anti-FLAG High-Sensitivity M2-Coated Plate) (Sigma-Aldrich), and the plate was left standing overnight at 4° C. Thereafter, the plate was washed four times with a PBS (PBST) buffer containing 0.1% Triton X-100. For Example 84, the Anti-FLAG High-Sensitivity M2-Coated Plate was replaced by an immunoplate (Thermo Fisher Scientific), tankyrase 1 or tankyrase 2 was immobilized on the immunoplate, and the immunoplate was then blocked with Blocking One (nacalai tesque), then washed with a PBS (PBST) buffer, and used as the following plate.
(§2) Subsequently, the test compound diluted with an assay buffer (50 mM Tris-HCl (pH 8.0), 4 mM MgCl2, 0.2 mM DTT) (DMSO was used as a control) was added to each well of the plate, and the plate was left standing at room temperature for 10 minutes. Thereafter, a biotin-labeled NAD solution (225 μM NAD, 25 μM 6-Biotin-17-NAD (Travigen, Inc.)) was added and mixed as a donor substrate, and the mixture was reacted at 30° C. for 45 minutes. To blank wells was added distilled water instead of the biotin-labeled NAD solution. After the reaction, the plate was washed with a PBST buffer four times. Thereafter, HRP (horseradish peroxidase)-labeled streptavidin (Travigen, Inc.) was diluted with a PBS buffer by 1,000 times, and added to each well, and the mixture was reacted at room temperature for 20 minutes. The plate was washed with a PBST buffer four times, a chemiluminescent substrate solution TACS-Sapphire (Travigen, Inc.) was then added to each well, the mixture was reacted at room temperature for 20 minutes, and the chemiluminescence intensity was measured using a chemiluminescence measuring apparatus. For Example 84, the streptavidin was diluted by 5,000 times, the chemiluminescent substrate solution TACS-Sapphire was replaced by an ELISA POD substrate TMB solution easy (nacalai tesque), the mixture was reacted at room temperature for 30 minutes, and the chemiluminescence intensity was measured using a chemiluminescence measuring apparatus.
(§3) The residual enzymatic activity in the presence of the test compound was determined from the following expression. On the basis of the residual enzymatic activity at each of multiple concentrations of the test compound, the enzyme inhibitory activity was calculated in terms of a 50%-inhibition concentration (IC50 value) using data analysis software Origin (LightStone Corp.). Residual activity (%)={(chemiluminescence intensity with test compound added)−(chemiluminescence intensity of blank)}/{(chemiluminescence intensity of control)−(chemiluminescence intensity of blank)}
In general terms: An ELISA detects its analyte on a solid surface through an enzyme-linked reagent.

In a further assay the target is T2, tankyrase 2 (TNKS2) (Homo sapiens, UniProt Q9H2K2).
T2 construct: tankyrase 2 (613-1,116aa, ANK5+SAM+PARP); made in house; host or cells: cell-free protein expression system
As to the kind of experiment: Tankyrase inhibitory activity test (ELISA, auto-poly(ADP-ribosyl)ation), tankyrase 2. The format is biochemical. Particulars: Flag tagged tankyrase 2 (613-1,116aa, ANK5+SAM+PARP); read-out: TNKS2 (inhibitory activity against tankyrase 2, IC50). As for the experimental part:
as §1, §2, §3

In assay [1] the test system is human colorectal cancer cell line COLO-320DM. As to the kind of experiment: Cell proliferation inhibitory activity test (Celltiter-Glo). As to conditions: COLO-320DM cells, 96 hours. The format is cell-based. The procedure: The cell proliferation inhibitory activity of the compound, which had been prepared in each of Examples, against the human colorectal cancer cell line COLO-320DM was evaluated by Celltiter-Glo Luminescent Cell Viability Assay (Promega Corporation; G7573). COLO-320DM cells were cultured in RPMI-1640 medium containing 2 mM glutamine (Wako Pure Chemical Industries, Ltd; 189-02025) supplemented with 10% fetal bovine serum. The cultured cells were washed with PBS, and then dissociated with trypsin/EDTA, and a cell solution with 3×10^4 cells/mL was prepared.
Subsequently, the cell solution was seeded in a 96-well microplate (Thermo/Nunc Company; 136101) in an amount of 70 μL per well, and cultured overnight under the condition of 37° C. and 5% CO2. Next day, a test compound solution obtained by diluting the test compound (DMSO solution) with a cell culture medium (final concentration of DMSO was 1%) was added in an amount of 10 μL per well, and the mixture was reacted under the condition of 37° C. and 5% CO2 for 96 hours (a 1% DMSO solution was used as a control). Thereafter, a Celltiter-GloLuminescent Cell Viability Assay reagent (Promega Corporation; G7573) was added in an amount of 80 μL per well, the mixture was stirred with a shaker for 2 minutes while light was blocked with an aluminum foil, and the mixture was incubated at room temperature for 10 minutes.
Thereafter, a luminescence signal was measured with a luminometer (Biotech Company; Synergy). The ratio of cell proliferation in each compound addition group to cell proliferation in a control group containing no test compound solution, where cell proliferation in the control group is 100%, was calculated and the value of a compound concentration necessary for suppressing the amount of residual cells to 50% of that in the control (GI50) was calculated as the cytostatic activity. […] An unevaluated test compound was designated as “NT”.
Background: Cellular ATP, detected with luciferase, serves as a proxy for viable cell number.

As a reminder, the IC50 is the concentration needed to halve the response being measured. By GI50 is commonly meant the concentration that inhibits growth by half.

T1 sequence (O95271 1024-1327): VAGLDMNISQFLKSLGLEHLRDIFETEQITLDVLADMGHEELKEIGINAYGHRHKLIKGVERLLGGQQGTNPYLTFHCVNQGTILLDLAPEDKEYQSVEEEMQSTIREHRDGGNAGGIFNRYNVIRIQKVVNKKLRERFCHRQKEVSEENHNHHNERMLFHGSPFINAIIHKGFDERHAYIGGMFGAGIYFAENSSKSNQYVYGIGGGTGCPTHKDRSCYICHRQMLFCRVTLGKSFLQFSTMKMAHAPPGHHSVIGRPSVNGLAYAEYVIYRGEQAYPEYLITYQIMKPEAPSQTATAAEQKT

Consider `COC(=O)c1ccc(-c2n[nH]cc2C2NC(=O)c3ccccc3N2C)cc1` (stereo not drawn) [Example 1, Methyl 4-[4-(1-methyl-4-oxo-2,3-dihydroquinazolin-2-yl)-1H-pyrazol-5-yl]benzoate], for which the values for the IC50 on tankyrase 1 (TNKS1) and at tankyrase 2 (TNKS2) were 20 to 50 nM and 5 to 20 nM, respectively.
For `CN1c2ccccc2C(=O)NC1c1c[nH]nc1-c1ccc(C(=O)O)cc1` (stereo not drawn) [Example 2, 4-[4-(1-Methyl-4-oxo-2,3-dihydroquinazolin-2-yl)-1H-pyrazol-5-yl]benzoic Acid], in that order: under 5 nM and under 5 nM.
For `CN1c2ccccc2C(=O)NC1c1c[nH]nc1-c1ccc(N)cc1` (stereo not drawn) [Example 3, 2-[3-(4-Aminophenyl)-1H-pyrazol-4-yl]-1-methyl-2,3-dihydroquinazolin-4-one], in assay [1], the GI50 was at least 10000 nM. Further, the IC50 at tankyrase 1 (TNKS1) and at tankyrase 2 (TNKS2) was 5 to 20 nM throughout.
Turning to `CN1c2ccccc2C(=O)NC1c1c[nH]nc1-c1ccc(NC(=O)c2ccccc2)cc1` (stereo not drawn) [Example 4, N-[4-[4-(1-Methyl-4-oxo-2,3-dihydroquinazolin-2-yl)-1H-pirazol-3-yl]phenyl]benzamide], in assay [1], the GI50 is at least 10000 nM. The figures for the IC50 at tankyrase 1 (TNKS1) and on tankyrase 2 (TNKS2) were 5 to 20 nM and under 5 nM, respectively.
On to `CN1c2ccccc2C(=O)NC1c1c[nH]nc1-c1cccc(NC(=O)Nc2ccccc2)c1` (stereo not drawn) [Example 5, 1-[3-[4-(1-Methyl-4-oxo-2,3-dihydroquinazolin-2-yl)-1H-pyrazol-3-yl]phenyl]-3-phenylurea], for which the GI50 in assay [1] is at least 10000 nM. The IC50 at tankyrase 1 (TNKS1) and on tankyrase 2 (TNKS2) was 5 to 20 nM throughout.
Consider `CN1CCN(c2ccc(-c3ccc(-c4n[nH]cc4C4NC(=O)c5ccccc5N4C)cc3)cc2)CC1` (stereo not drawn) [Example 6, 1-Methyl-2-[5-[4-[4-(4-methylpiperazin-1-yl)phenyl]phenyl]-1H-pirazol-4-yl]-2,3-dihydroquinazolin-4-one], for which the GI50 in assay [1] lay in the range of 1000 to 10000 nM. Moreover, the IC50 was 20 to 50 nM at tankyrase 1 (TNKS1) and 5 to 20 nM on tankyrase 2 (TNKS2).
For `CN1c2ccccc2C(=O)NC1c1n[nH]nc1-c1ccc(-c2ccc(N3CCOCC3)cc2)cc1` (stereo not drawn) [Example 7, 1-Methyl-2-[4-[4-(4-morpholin-4-ylphenyl)phenyl]-2H-1,2,3-triazol-5-yl]-2,3-dihydroquinazolin-4-one], in that order: at least 10000 nM, 20 to 50 nM and 5 to 20 nM.
For `CCOc1ccc(-c2n[nH]nc2[C@H]2NC(=O)c3cccc(C)c3N2)cc1` [Example 8, (2R)-2-[5-(4-Ethoxyphenyl)-2H-1,2,3-triazol-4-yl]-8-methyl-2,3-dihydro-1H-quinazolin-4-one], in that order: under 1000 nM, under 5 nM and under 5 nM.
In the case of `O=C1NC(c2c[nH]nc2-c2ccccc2)Nc2ccccc21` (stereo not drawn) [Example 9, 2-(3-Phenyl-1H-pyrazol-4-yl)-2,3-dihydro-1H-quinazolin-4-one], the IC50 on tankyrase 1 (TNKS1) and at tankyrase 2 (TNKS2) was 20 to 50 nM throughout.
For `CN1c2ccccc2C(=O)NC1c1c[nH]nc1-c1ccccc1` (stereo not drawn) [Example 10, 1-Methyl-2-(3-phenyl-1H-pyrazol-4-yl)-2,3-dihydroquinazolin-4-one], the GI50 in assay [1] is at least 10000 nM. For the same compound, the IC50 on tankyrase 1 (TNKS1) was 5 to 20 nM; at tankyrase 2 (TNKS2) it was under 5 nM.
For `CN1c2ccccc2C(=O)NC1c1c[nH]nc1-c1ccc(OCc2ccccc2)cc1` (stereo not drawn) [Example 11, 1-Methyl-2-[3-(4-phenylmethoxyphenyl)-1H-pyrazol-4-yl]-2,3-dihydroquinazolin-4-one] the same measures were at least 10000 nM, 5 to 20 nM and under 5 nM.
For `CCN1c2ccccc2C(=O)NC1c1c[nH]nc1-c1ccc(OC)cc1` (stereo not drawn) [Example 12, 1-Ethyl-2-[3-(4-methoxyphenyl)-1H-pyrazol-4-yl]-2,3-dihydroquinazolin-4-one], in that order: 1000 to 10000 nM, 20 to 50 nM and 5 to 20 nM.
For `CCN1c2ccccc2C(=O)NC1c1c[nH]nc1-c1ccc(C(=O)OC)cc1` (stereo not drawn) [Example 13, Methyl 4-[4-(1-ethyl-4-oxo-2,3-dihydroquinazolin-2-yl)-1H-pyrazol-3-yl]benzoate], in that order: at least 10000 nM, 20 to 50 nM and 20 to 50 nM.
As for `COc1ccc(-c2n[nH]cc2C2NC(=O)c3ccccc3N2CC2CC2)cc1` (stereo not drawn) [Example 14, 1-(Cyclopropylmethyl)-2-[5-(4-methoxyphenyl)-1H-pyrazol-4-yl]-2,3-dihydroquinazolin-4-one], in assay [1], the GI50 was at least 10000 nM. In addition, the IC50 on tankyrase 1 (TNKS1) and on tankyrase 2 (TNKS2) was 20 to 50 nM in each case.
For the compound `COc1cccc(-c2n[nH]cc2C2NC(=O)c3ccccc3N2C)c1` (stereo not drawn) [Example 15, 2-[5-(3-Methoxyphenyl)-1H-pyrazol-4-yl]-1-methyl-2,3-dihydroquinazolin-4-one], in assay [1], the GI50 is at least 10000 nM. The IC50 on tankyrase 1 (TNKS1) is 5 to 20 nM; on tankyrase 2 (TNKS2), 20 to 50 nM.
For `CN1c2ccccc2C(=O)NC1c1c[nH]nc1-c1ccc([N+](=O)[O-])cc1` (stereo not drawn) [Example 16, 1-Methyl-2-[3-(4-nitrophenyl)-1H-pyrazol-4-yl]-2,3-dihydroquinazolin-4-one] the same measures were at least 10000 nM, 20 to 50 nM and 20 to 50 nM.
For `CN1c2ccccc2C(=O)NC1c1c[nH]nc1-c1ccc(-c2ccccc2)cc1` (stereo not drawn) [Example 17, 1-Methyl-2-[3-(4-phenylphenyl)-1H-pyrazol-4-yl]-2,3-dihydroquinazolin-4-one], in that order: at least 10000 nM, 20 to 50 nM and under 5 nM.
Turning to `CN1c2ccccc2C(=O)NC1c1c[nH]nc1-c1ccc(Oc2ccccc2)cc1` (stereo not drawn) [Example 18, 1-Methyl-2-[3-(4-phenoxyphenyl)-1H-pyrazol-4-yl]-2,3-dihydroquinazolin-4-one], in assay [1], the GI50 was at least 10000 nM. Besides, the IC50 on tankyrase 1 (TNKS1) is 20 to 50 nM; on tankyrase 2 (TNKS2) it was under 5 nM.
As for `CN1c2ccccc2C(=O)NC1c1c[nH]nc1-c1ccc(I)cc1` (stereo not drawn) [Example 19, 2-[3-(4-Iodophenyl)-1H-pyrazol-4-yl]-1-methyl-2,3-dihydroquinazolin-4-one], the GI50 in assay [1] is at least 10000 nM. Also, the IC50 at tankyrase 1 (TNKS1) is 5 to 20 nM; on tankyrase 2 (TNKS2), under 5 nM.
For the compound `CN1c2ccccc2C(=O)NC1c1c[nH]nc1-c1cccc(Br)c1` (stereo not drawn) [Example 20, 2-[3-(3-Bromophenyl)-1H-pyrazol-4-yl]-1-methyl-2,3-dihydroquinazolin-4-one], the GI50 in assay [1] was at least 10000 nM. Moreover, the IC50 at tankyrase 1 (TNKS1) was 20 to 50 nM; at tankyrase 2 (TNKS2), 5 to 20 nM.
